Measurements published in patent US8299125B2, “Water-soluble triterpenephenol compounds having antitumor activity and the preparation thereof” (Shanghai Huatuo Medical Science Co., Ltd., priority 2007, dated 2012).

Assays:
[1] = Stability assay of compound A during the preparation of the injection (HPLC peak area); format: physicochemical; details: for peak area: 210 nm
Description: (§1) Experimental conditions: the chromatography column was DIKMA C18 column (5μ, 250×4.6 mm); the detector was Agilent 1100 DAD detector; the detection wavelength was 210 nm; the liquid phase was acetonitrile-0.02M KH2PO4 (which contains 1‰ of tetrabutylammonium hydroxide, and the pH was adjusted to 7.35 with triethylamine) (35:65); the flow speed was 1 ml/min; and sample amount was 20 μl.
Sample: the solutions in each step of the preparation of the injection of compound A in example 6
Experimental data: the peak area of the solution before filtering with micro-pore filter film was 1084.4, the peak area after filtering was 1078.2, and the peak area after the moist heat sterilization was 1072.9.

[2] = Stability assay of compound A at meta-acidic or meta-alkalescence condition (HPLC peak area); format: physicochemical; details: 2 hours
Description: as §1, with “mm); The” for “mm); the”, “was Waters 3487” for “was Agilent 1100 DAD”, “1‰” for “1‰ of”, “(35:65); and” for “(35:65);”, “1 ml/min.” for “1 ml/min; and sample amount was 20 μl.”
Experimental method: the compound A was formulated into a solution of about 5 mg/ml with distilled water. 0.1 ml of the solution was added into the following solutions respectively: a) 1 ml of HCl diluted solution with a pH of 2; b) 1 ml of distilled water; c) 1 ml of sodium carbonate diluted solution with a pH of 10. After left standing at room temperature for 2 hours, 0.1 ml of each the above three kinds of solution were added into 1 ml of liquid phase solution, respectively, and 20 μl was sampled and injected into the chromatograph. The peak areas were then determined and calculated.

[3] = test system: human prostate cancer cell PC-3 transplanted into nude mice; assay: Therapeutic activity against human prostate cancer cell PC-3 transplanted into nude mice; format: in vivo, BALB/Ca nude mice; details: for TV d24 / T/C (%) / RTV / TV d0: dl/3.5 w, i.p; for TV d24: 24th day; for T/C (%): relative tumor proliferation rate; for RTV: relative tumor volume Vt/V0; for TV d0: tumor volume at start of administration
Description: The therapeutic activity experiment of compound A against human prostate cancer cell PC-3 transplanted into nude mice was conducted by SHANGHAI INSTITUTE OF MATERIA MEDICA, CHINESE ACADEMY OF SCIENCES, under assignment by SHANGHAI HUATUO MEDICAL SCIENCE CO., LTD.
Tested Compound: Compound A.
Positive control medicine: mitomycin (MMC), produced by Kyowa Hakko kogyo Co Ltd. (batch no: 468AEF, 2 mg/bottle), was diluted with physiological saline when used.
Animal and transplanted tumor: BALB/Ca nude mice, female, 45˜50 days old, weight 20±1 g. The transplanted tumor of human prostate cancer cell PC-3 in nude mice was established by inoculating the nude mice with PC-3 cell line subcutaneously.
TV (mm^3) is the tumor volume, and the calculation equation is: TV=½×a×b^2, wherein a and b represent length and width respectively. d0 is the tumor volume measured as medicine is administered in divided cages, and d24 is the tumor volume on the 24th day of the experiment. RTV is the relative tumor volume, and the calculation equation is RTV=Vt/V0, wherein V0 is the tumor volume measured as medicine is administered in divided cages (i.e. d0), Vt is the tumor volume measured every time. The evaluation index of the antitumor activity is the relative tumor proliferation rate T/C (%) and the calculation equation is as follows: T/C(%)=(TRTV/CRTV)×100
TRTV: RTV of the therapeutic group; CRTV: RTV of the negative control group.
Evaluation standard of therapeutic effect: T/C (%)>60% is ineffective, T/C (%)≦60 and with a statistic result of p<0.05 represents effective.

SMILES	stability during the injection preparation [1]	peak area ([1]; after filtering)	peak area ([1]; after the moist heat sterilization (116° C., 30 min))	peak area ([1]; solution before filtering with micro-pore filter film)	Percentage (based on the peak area in distilled water taken as 100%) ([2]; Distilled water (reference), room temperature) [%]	peak area ([2]; Distilled water, room temperature)	stability at both meta-acidic condition and meta-alkalescence condition ([2]; pH 2 and pH 10, room temperature)	peak area ([2]; pH = 2 (HCl diluted solution), room temperature)	Percentage (based on the peak area in distilled water taken as 100%) ([2]; pH = 2, room temperature) [%]	peak area ([2]; pH = 10 (sodium carbonate diluted solution), room temperature)	Percentage (based on the peak area in distilled water taken as 100%) ([2]; pH = 10, room temperature) [%]	TV d24 ([3]; 3 mg/kg) [mm^3]	T/C (%) ([3]; 3 mg/kg)	RTV ([3]; 3 mg/kg)	TV d0 ([3]; 3 mg/kg) [mm^3]	inhibition of the growth of human prostate cancer cell PC-3 transplanted into nude mice ([3]; mouse, in vivo)	TV d24 ([3]; 5 mg/kg) [mm^3]	T/C (%) ([3]; 5 mg/kg)	RTV ([3]; 5 mg/kg)	TV d0 ([3]; 5 mg/kg) [mm^3]
Cc1c(O)c(O)cc2c1C(S(=O)(=O)[O-])C=C1[C@@]2(C)CC[C@@]2(C)[C@@H]3C[C@](C)(C(=O)O)CC[C@]3(C)CC[C@]12C.[Na+] (some centres unmarked) [Compound A]	good	1078.2	1072.9	1084.4	100	1206926	good stability	1247385	103.4	1232216	102.1	501 ± 133	40.2	3.8 ± 1.1	135 ± 16	marked inhibition effects	–	–	–	–
CO[C@@]12[C@H](COC(N)=O)C3=C(C(=O)C(C)=C(N)C3=O)N1C[C@@H]1N[C@@H]12 [mitomycin, reference compound]	–	–	–	–	–	–	–	–	–	–	–	–	–	–	–	–	400 ± 224	33.7	3.1 ± 1.8	135 ± 42
